Experiment [1] addresses T1, human mAChR M1 (Homo sapiens, UniProt P11229).
T1 sequence (P11229 1-460): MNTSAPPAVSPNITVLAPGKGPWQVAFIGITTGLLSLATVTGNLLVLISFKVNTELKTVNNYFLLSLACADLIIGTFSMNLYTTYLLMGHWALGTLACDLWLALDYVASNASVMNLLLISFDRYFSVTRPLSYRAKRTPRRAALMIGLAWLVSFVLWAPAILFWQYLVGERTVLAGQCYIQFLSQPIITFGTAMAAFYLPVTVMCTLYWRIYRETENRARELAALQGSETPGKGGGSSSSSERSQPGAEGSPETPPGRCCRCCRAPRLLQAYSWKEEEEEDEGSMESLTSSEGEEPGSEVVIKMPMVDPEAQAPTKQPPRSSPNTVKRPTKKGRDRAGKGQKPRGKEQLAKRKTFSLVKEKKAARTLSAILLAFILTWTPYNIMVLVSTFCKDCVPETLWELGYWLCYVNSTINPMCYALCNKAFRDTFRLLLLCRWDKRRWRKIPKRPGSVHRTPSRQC
Kind of experiment: mAChR M1 cell-based functional assay (calcium mobilization), agonist mode: compound alone, Emax relative to acetylcholine maximum. To be noted: for Agonist Activity Human M1 EC50 / EC50: human mAChR M1. Summed up: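 Agonist activity is the concentration-dependent rise in intracellular calcium (Fluo-4, 1 Hz read) after compound addition, measured before any acetylcholine was added, in stable hM1 CHO-K1 cells. Curves were 11-point, 1:3 dilutions fitted by four-parameter logistic. Emax is given as a fraction of maximal acetylcholine response.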
Background: Calcium assays in cells follow changes in intracellular calcium, usually with a dye or a luminescent sensor.

The target in experiment [2] is T1, human mAChR M1. Kind of experiment: mAChR M1 cell-based functional assay (calcium mobilization), PAM mode: increase in the EC20 acetylcholine response. Summed up:
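PAM readout is the concentration-dependent rise in the EC20 acetylcholine calcium signal, fitted to a four-parameter logistic (EC50, Emax). Compounds were preincubated from 4 s before ACh at 144 s (EC20) and 230 s (EC80). hM1-expressing CHO-K1 cells loaded with Fluo-4, FDSS ratio read.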

Where [3] appears, read: relative to the maximum for acetylcholine.

Structures are written as SMILES.

As usually defined, the Emax is the greatest response seen or fitted, relative to the assay's reference. Broadly, the EC50 is the concentration giving half of the maximal effect. In the case of `[2H]C1([2H])c2ncccc2C(=O)N1Cc1c(F)cc(-c2ccc(Cl)c3nn(C([2H])([2H])[2H])cc23)cc1F` [Compound 73, 6-(4-(7-chloro-2-(methyl-d3)-2H-indazol-4-yl)-2,6-difluorobenzyl)-6,7-dihydro-5H-pyrrolo[3,4-b]pyridin-5-one-7,7-d2], at human mAChR M1 [1], the “Agonist Activity Human M1 EC50” value is on record as “Inactive”. Besides, the maximal effect (Emax) at human mAChR M1 [1] (setting [3]) is 1%; on human mAChR M1 [2], 77%. Further, the EC50 on human mAChR M1 [2] is 170 nM.

In the case of `[2H]C1([2H])c2ncccc2C(=O)N1Cc1c(F)cc(-c2ccc(C(F)(F)F)c3nn(C([2H])([2H])[2H])cc23)cc1F` [Compound 74, 6-(2,6-difluoro-4-(2-(methyl-d3)-7-(trifluoromethyl)-2H-indazol-4-yl)benzyl)-6,7-dihydro-5H-pyrrolo[3,4-b]pyridin-5-one-7,7-d2], the “Agonist Activity Human M1 EC50” value at human mAChR M1 [1] is “Inactive”. Moreover, the Emax is 1% at human mAChR M1 [1] (setting [3]) and 81% at human mAChR M1 [2]. Further, the EC50 on human mAChR M1 [2] is 592 nM.

With `[2H]C1([2H])c2ncccc2C(=O)N1Cc1c(F)cc(-c2cc(Cl)cc3nn(C)cc23)cc1F` [Compound 75, 6-(4-(6-chloro-2-methyl-2H-indazol-4-yl)-2,6-difluorobenzyl)-6,7-dihydro-5H-pyrrolo[3,4-b]pyridin-5-one-7,7-d2], the “Agonist Activity Human M1 EC50” value on human mAChR M1 [1] is listed as “Inactive”. For the same compound, the Emax at human mAChR M1 [1] (setting [3]) is 1%; at human mAChR M1 [2], 55%. In addition, the EC50 on human mAChR M1 [2] is 626 nM.

On to `[2H]C1([2H])c2ncccc2C(=O)N1Cc1c(F)cc(-c2cc(OC)c3nn(C)cc3c2)cc1F` [Compound 76, 6-(2,6-difluoro-4-(7-methoxy-2-methyl-2H-indazol-5-yl)benzyl)-6,7-dihydro-5H-pyrrolo[3,4-b]pyridin-5-one-7,7-d2], for which the 50% effective concentration (EC50) was 3740 nM at human mAChR M1 [1] and 58 nM on human mAChR M1 [2]. Also, the Emax on human mAChR M1 [1] (setting [3]) came to 29%; on human mAChR M1 [2], 78%.

For the compound `[2H]C1([2H])c2ncccc2C(=O)N1Cc1c(F)cc(-c2cc(F)c(Cl)c3nn(C)cc23)cc1F` [Compound 77, 6-(4-(7-chloro-6-fluoro-2-methyl-2H-indazol-4-yl)-2,6-difluorobenzyl)-6,7-dihydro-5H-pyrrolo[3,4-b]pyridin-5-one-7,7-d2], the “Agonist Activity Human M1 EC50” value on human mAChR M1 [1] is on record as “Inactive”. In addition, on human mAChR M1 [1] (setting [3]), the “Agonist Activity Emax” value amounted to 1%. For the same compound, on human mAChR M1 [2], the EC50 stood at 1350 nM and the “PAM Activity Emax” value came out at 47%.

With `[2H]C([2H])([2H])Oc1cnc2c(c1)C(=O)N(Cc1c(F)cc(-c3cccc4nn(C([2H])([2H])[2H])cc34)cc1F)C2([2H])[2H]` [Compound 78, 6-(2,6-difluoro-4-(2-(methyl-d3)-2H-indazol-4-yl)benzyl)-3-(methoxy-d3)-6,7-dihydro-5H-pyrrolo[3,4-b]pyridin-5-one-7,7-d2], the “Agonist Activity Human M1 EC50” value on human mAChR M1 [1] was “Inactive”. The maximal effect (Emax) at human mAChR M1 [1] (setting [3]) was 6%. In addition, on human mAChR M1 [2], the EC50 was determined as 100 nM and the Emax worked out at 77%.

In the case of `[2H]C1([2H])c2ncccc2C(=O)N1Cc1c(F)cc(-c2cn(C)c(=O)c3nn(C)cc23)cc1F` [Compound 79, 4-(3,5-difluoro-4-((5-oxo-5,7-dihydro-6H-pyrrolo[3,4-b]pyridin-6-yl-7,7-d2)methyl)phenyl)-2,6-dimethyl-2,6-dihydro-7H-pyrazolo[3,4-c]pyridin-7-one], the EC50 on human mAChR M1 [1] is at least 10000 nM; on human mAChR M1 [2] it was 793 nM. Moreover, the maximal response (Emax) at human mAChR M1 [1] (setting [3]) amounted to 16%; at human mAChR M1 [2], 79%.

As to `[2H]C1([2H])c2ncccc2C(=O)N1Cc1c(F)cc(-c2cn(C)c(=O)c3c2cnn3C)cc1F` [Compound 80, 4-(3,5-difluoro-4-((5-oxo-5,7-dihydro-6H-pyrrolo[3,4-b]pyridin-6-yl-7,7-d2)methyl)phenyl)-1,6-dimethyl-1,6-dihydro-7H-pyrazolo[3,4-c]pyridin-7-one], the “Agonist Activity Human M1 EC50” value at human mAChR M1 [1] was “Inactive”. Moreover, the Emax at human mAChR M1 [1] (setting [3]) is 1%. At human mAChR M1 [2], the EC50 worked out at 2230 nM and the Emax amounted to 59%.

Take `[2H]C1([2H])c2ncccc2C(=O)N1Cc1c(F)cc(-c2cc(C(F)F)cc3nn(C)cc23)cc1F` [Compound 81, 6-(4-(6-(difluoromethyl)-2-methyl-2H-indazol-4-yl)-2,6-difluorobenzyl)-6,7-dihydro-5H-pyrrolo[3,4-b]pyridin-5-one-7,7-d2]: the “Agonist Activity Human M1 EC50” value on human mAChR M1 [1] is reported as “Inactive”. Moreover, the maximal effect (Emax) at human mAChR M1 [1] (setting [3]) worked out at 2%; on human mAChR M1 [2] it was 48%. Besides, the EC50 on human mAChR M1 [2] came to 159 nM.

For the compound `[2H]C([2H])([2H])Oc1cnc2c(c1)C(=O)N(Cc1ccc(-c3cccc4nn(C)cc34)cc1F)C2([2H])[2H]` [Compound 82, 6-(2-fluoro-4-(2-methyl-2H-indazol-4-yl)benzyl)-3-(methoxy-d3)-6,7-dihydro-5H-pyrrolo[3,4-b]pyridin-5-one-7,7-d2], the EC50 at human mAChR M1 [1] stood at 4930 nM; on human mAChR M1 [2] it was 120 nM. In addition, the Emax at human mAChR M1 [1] (setting [3]) worked out at 25%; at human mAChR M1 [2] it was 79%.

With `[2H]C([2H])([2H])Oc1cnc2c(c1)C(=O)N(Cc1ccc(-c3cccc4nn(C)cc34)cc1)C2([2H])[2H]` [Compound 83, 3-(methoxy-d3)-6-(4-(2-methyl-2H-indazol-4-yl)benzyl)-6,7-dihydro-5H-pyrrolo[3,4-b]pyridin-5-one-7,7-d2], the EC50 at human mAChR M1 [1] was determined as 6230 nM; on human mAChR M1 [2] it was 244 nM. In addition, the results for the Emax at human mAChR M1 [1] (setting [3]) and at human mAChR M1 [2] were 19% and 80%, respectively.

As for `[2H]C1([2H])c2ncccc2C(=O)N1Cc1ccc(-c2cc(F)cc3nn(C)cc23)cc1C` [Compound 84, 6-(4-(6-fluoro-2-methyl-2H-indazol-4-yl)-2-methylbenzyl)-6,7-dihydro-5H-pyrrolo[3,4-b]pyridin-5-one-7,7-d2], the “Agonist Activity Human M1 EC50” value at human mAChR M1 [1] is reported as “Inactive”. Further, the Emax on human mAChR M1 [1] (setting [3]) came out at 2%. Moreover, at human mAChR M1 [2], the EC50 was found to be 1240 nM and the Emax was 74%.

As to `[2H]C1([2H])c2ncccc2C(=O)N1Cc1c(F)cc(-c2cc(Cl)cc3nn(C([2H])([2H])[2H])cc23)cc1F` [Compound 85, 6-(4-(6-chloro-2-(methyl-d3)-2H-indazol-4-yl)-2,6-difluorobenzyl)-6,7-dihydro-5H-pyrrolo[3,4-b]pyridin-5-one-7,7-d2], the “Agonist Activity Human M1 EC50” value on human mAChR M1 [1] is reported as “Inactive”. Further, the Emax on human mAChR M1 [1] (setting [3]) worked out at 2%. Also, at human mAChR M1 [2], the EC50 was found to be 654 nM and the Emax is 51%.

For `[2H]C1([2H])c2ncccc2C(=O)N1Cc1c(F)cc(-c2cc(F)cc3nn(C([2H])([2H])[2H])cc23)cc1F` [Compound 86, 6-(2,6-difluoro-4-(6-fluoro-2-(methyl-d3)-2H-indazol-4-yl)benzyl)-6,7-dihydro-5H-pyrrolo[3,4-b]pyridin-5-one-7,7-d2], on human mAChR M1 [1], the “Agonist Activity Human M1 EC50” value was “Inactive”. At human mAChR M1 [1] (setting [3]), the Emax was 2%. Further, at human mAChR M1 [2], the EC50 amounted to 237 nM and the maximal response (Emax) came to 46%.

Turning to `[2H]C([2H])([2H])Oc1cc(-c2cc(F)c(CN3C(=O)c4cccnc4C3([2H])[2H])c(F)c2)c2cn(C([2H])([2H])[2H])nc2c1` [Compound 87, 6-(2,6-difluoro-4-(6-(methoxy-d3)-2-(methyl-d3)-2H-indazol-4-yl)benzyl)-6,7-dihydro-5H-pyrrolo[3,4-b]pyridin-5-one-7,7-d2], at human mAChR M1 [1], the “Agonist Activity Human M1 EC50” value is “Inactive”. The Emax at human mAChR M1 [1] (setting [3]) came out at 11%. In addition, on human mAChR M1 [2], the concentration for a half-maximal effect (EC50) amounted to 819 nM and the Emax was 69%.
